From patent publication US20090312286A1, “DERIVATIVES OF 4-TRIMETHYLAMMONIUM-3-AMINOBUTYRATE AND 4-TRIMETHYLPHOSPHONIUM-3-AMINOBUTYRATE AS CPT-INHIBITORS” (SIGMA-TAU INDUSTRIE FARMACEUTICHE RIUNITE S.P.A., priority 2006, published 2009)
Values belong to the compound of their own block, whether it stands above or below them.

How the values were obtained:
[1] = target: T1, CPT1 in rat mitochondria (liver) (Rattus norvegicus, UniProt P32198); experiment: In vitro inhibition of CPT I, rat liver mitochondria; format: biochemical; conditions: for Ratio: IC50 (heart) / IC50 (liver); for IC50: CPT1, liver mitochondria of Fischer rats, 50 μM palmitoyl-CoA, 10 mM L-carnitine, 37° C., 1 minute
T1 construct: fresh mitochondrial preparations obtained from the liver or heart of Fischer rats; from tissue; host or cells: rat liver mitochondria (Fischer rats)
T1 sequence (P32198 1-773): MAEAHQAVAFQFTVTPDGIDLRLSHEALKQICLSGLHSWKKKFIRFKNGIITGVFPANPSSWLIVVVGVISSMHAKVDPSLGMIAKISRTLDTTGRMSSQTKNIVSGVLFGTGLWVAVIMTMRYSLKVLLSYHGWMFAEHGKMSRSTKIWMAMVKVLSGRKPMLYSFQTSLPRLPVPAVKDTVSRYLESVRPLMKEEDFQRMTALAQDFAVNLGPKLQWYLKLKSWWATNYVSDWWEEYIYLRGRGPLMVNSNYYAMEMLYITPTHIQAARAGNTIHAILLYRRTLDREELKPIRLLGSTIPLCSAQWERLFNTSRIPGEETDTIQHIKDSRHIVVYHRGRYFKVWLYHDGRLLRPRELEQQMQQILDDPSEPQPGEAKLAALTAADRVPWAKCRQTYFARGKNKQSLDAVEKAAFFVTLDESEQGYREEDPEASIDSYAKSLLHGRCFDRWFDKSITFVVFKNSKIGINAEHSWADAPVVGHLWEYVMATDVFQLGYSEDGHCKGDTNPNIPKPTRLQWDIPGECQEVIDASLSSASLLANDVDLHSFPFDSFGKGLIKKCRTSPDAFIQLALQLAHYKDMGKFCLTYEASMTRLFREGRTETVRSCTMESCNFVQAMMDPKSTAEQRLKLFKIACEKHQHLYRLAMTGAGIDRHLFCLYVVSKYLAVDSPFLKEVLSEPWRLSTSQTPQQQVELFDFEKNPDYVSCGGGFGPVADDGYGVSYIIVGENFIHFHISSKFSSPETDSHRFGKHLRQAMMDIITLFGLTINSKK
Description: 100 μl of a mitochondrial suspension, containing 50 μM of [^14C] palmitoyl-CoA (spec.act. 10000 dpm/mole) and 10 mM of L-carnitine, are incubated at 37° C. in the presence of stepped concentrations (0-3 mM) of product under examination.
(§1) The IC50 is then determined.

[2] = tested on: β-hydroxybutyrate production; experiment: Inhibition of ketone bodies production in vivo in fasted rats; design: species or system rat; conditions: for ED50: Rattus norvegicus, single oral treatment, calculated on AUC of β-hydroxybutyrate from time 0 to 9 hours; for reduction of β-hydroxybutyrate levels / time to reach minimum β-hydroxybutyrate values: rats fasted 17 hours; for reduction of β-hydroxybutyrate levels: single oral dose equimolar to 10 mg/Kg of ST1326, measured at 3 and 6 hours; for time to reach minimum β-hydroxybutyrate values: single oral dose equimolar to 10 mg/Kg of ST1326, values stable for additional 3 hours
Description: The compounds were administered per os at 9:00 after 17 hours of fasting (n=5) at doses equimolar to 10 mg/kg of ST1326, which is used as reference compound.
The inhibition of CPT and consequently of β-hydroxybutyrate production operated by ST2425 and ST2452 was evaluated in vivo in rats fasted from 17 hours, at doses equimolar to 10 mg/Kg of ST1326 used as reference compound. β-hydroxybutyrate levels were measured at 3 and 6 hours from single oral treatment.
For compound ST2425, inhibition of ketone bodies production was also evaluated at the dosages of 0, 1, 3, 7, 10 mg/kg in rats fasted for 16 hours, following the reduction of β-hydroxybutyrate for 9 hours after single oral treatment.

db/db mice = experiment: Antihyperglycemic activity in db/db mice; format: in vivo, mouse; conditions: vs control
Description: ST2425 and ST2452 were administered to db/db mice for 12 days at 30 mg/kg/day, using ST1326 at a higher dose (80 mg/kg/day) as reference compound. At the end of the treatment, serum glucose levels were evaluated after 16 hours fasting and 2 hours from last administration.

[3] = target: T2, CPT1 in rat mitochondria (heart) (Rattus norvegicus, UniProt Q63704); experiment: In vitro inhibition of CPT I, rat heart mitochondria; format: biochemical; conditions: CPT1, heart mitochondria of Fischer rats, 50 μM palmitoyl-CoA, 10 mM L-carnitine, 37° C., 1 minute
T2 construct: fresh mitochondrial preparations obtained from the liver or heart of Fischer rats; from tissue; host or cells: rat heart mitochondria (Fischer rats)
T2 sequence (Q63704 1-772): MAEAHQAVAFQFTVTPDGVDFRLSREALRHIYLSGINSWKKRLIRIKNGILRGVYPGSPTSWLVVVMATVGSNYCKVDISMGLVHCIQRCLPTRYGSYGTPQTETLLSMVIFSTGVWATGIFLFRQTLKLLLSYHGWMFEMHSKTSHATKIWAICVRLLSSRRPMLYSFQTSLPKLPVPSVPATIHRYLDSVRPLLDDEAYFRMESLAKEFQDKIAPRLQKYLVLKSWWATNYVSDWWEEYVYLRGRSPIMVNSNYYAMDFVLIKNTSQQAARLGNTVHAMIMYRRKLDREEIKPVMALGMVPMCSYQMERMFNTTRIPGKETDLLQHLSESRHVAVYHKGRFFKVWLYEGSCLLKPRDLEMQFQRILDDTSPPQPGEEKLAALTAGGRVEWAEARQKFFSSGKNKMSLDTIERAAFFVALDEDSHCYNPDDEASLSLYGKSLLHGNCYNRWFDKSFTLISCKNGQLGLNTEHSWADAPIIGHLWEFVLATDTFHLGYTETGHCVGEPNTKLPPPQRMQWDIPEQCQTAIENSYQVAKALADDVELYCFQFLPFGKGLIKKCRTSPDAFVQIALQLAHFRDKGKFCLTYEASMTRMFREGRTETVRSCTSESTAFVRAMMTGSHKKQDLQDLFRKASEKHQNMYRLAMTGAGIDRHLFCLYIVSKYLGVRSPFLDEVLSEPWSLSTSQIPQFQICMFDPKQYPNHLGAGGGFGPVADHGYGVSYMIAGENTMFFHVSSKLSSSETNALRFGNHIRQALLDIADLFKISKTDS
Description: The inhibition of CPT was evaluated on fresh mitochondrial preparations obtained from the liver or heart of Fischer rats, fed normally; the mitochondria taken from the liver or heart are suspended in a 75 mM sucrose buffer, EGTA 1 mM, pH 7.5. 100 μl of a mitochondrial suspension, containing 50 μM of [^14C] palmitoyl-CoA (spec.act. 10000 dpm/mole) and 10 mM of L-carnitine, are incubated at 37° C. in the presence of stepped concentrations (0-3 mM) of product under examination.
as §1

Sprague Dawley rats = experiment: Effect on food intake of intranasal administration in normal rats; format: in vivo; conditions: intranasal 320 μg/40 μL/rat for 3 days, starting from the day after the second treatment, FIG. 3
Description: FIG. 3 reports the food intake (expressed as g/kg b.w.) in Sprague Dawley rats, treated intranasally for 3 days with ST2425 (320 μg/40 μl/rat) equally subdivided in the two nostrils. (Mean±S.D. (n=5). One way ANOVA post-hoc test SNK *p≦0.05 vs Control)
To test the activity on food consumption of the compounds of the present invention after intranasal administration, ST2425 was given to normally-fed Sprague Dawley rats (320 μg/40 μL/rat, in citrate buffer 10 mmol/L pH 5.0, equally subdivided into the two nostrils) 2 h before the dark cycle. The compound was administered for 3 days (starting from day 0) and food consumption was measured every time for the following 24 h. Five rats were considered for each group.

C57BL/6J mice = experiment: Effect on food intake and body weight of repeated intracerebroventricular administration; format: in vivo, mouse; conditions: for Mice weight / 24 hours food intake: C57BL6/J mice, Mean ± S.D.
Description: Two groups of 8 C57BL/6J mice each (ST2425 and Control) were injected icv (3 μL) with 250 pmoles (0.113 μg) of ST2425 dissolved in RPMI 1640 (vehicle), for 4 days (starting from day 0). The animals were slightly confused by isofluorane anestesia. The head was positioned in an apparatus used to reveal a “virtual bregma” without opening the skin. The injection was performed with a syringe at 3.5 mm of depth, using the following coordinates from Bregma: 1 mm on the left of the midsagittal suture and 3 mm posterior (lateral ventricle). The animals were treated at 5:00 p.m. and food intake was monitored at 8:00 a.m. of the day after. Starting from the day after the first treatment, food was removed from 8:00 a.m. to 5:00 p.m.
Statistical analysis was performed using two way repeated measures ANOVA followed by Student, Newman, Keuls test as post-hoc analysis.

[4] = day 1, icv 250 pmoles for 4 days
[5] = day 2, icv 250 pmoles for 4 days
[6] = day 3, icv 250 pmoles for 4 days
[7] = day 4, icv 250 pmoles for 4 days
[8] = days 3 and 4, statistically significant
[9] = over the experiment, icv 250 pmoles for 4 days

Ratio [1]: 135
Structure (SMILES): CCCCCCCCCCCCCCNC(=O)N[C@H](CC(=O)[O-])C[N+](C)(C)C [ST1326, R-4-trimethyl ammonium-3-(tetradecylcarbamoyl)-aminobutyrate, reference compound]
ED50 ([2]; rats fasted 16 hours): 14.5 mg/kg | reduction of glucose levels (db/db mice; 80 mg/kg/day for 12 days): 26%

IC50 [3]: 31.6 µM | IC50 [1]: 0.27 µM | Ratio [1]: 117
Structure (SMILES): CCCCCCOc1cccc(OCCCCNC(=O)N[C@H](CC(=O)[O-])C[N+](C)(C)C)c1 [ST2425, (R)-4-trimethylammonium-3-[[4-[(3-hexyloxy)-phenoxy]butyl]carbamoyl]-amino-butyrate]
food consumption with respect to controls (Sprague Dawley rats): significant reduction of food consumption | Mice weight (C57BL/6J mice; day 0, icv 250 pmoles for 4 days): 22.2 ± 0.91 g | 24 hours food intake (C57BL/6J mice; [4]): 3.15 ± 0.61 g | Mice weight (C57BL/6J mice; [4]): 21.2 ± 0.96 g | 24 hours food intake (C57BL/6J mice; [5]): 3.31 ± 0.70 g | Mice weight (C57BL/6J mice; [5]): 20.5 ± 1.14 g | change of mice weight (C57BL/6J mice; day 2, statistically significant): −5% | 24 hours food intake (C57BL/6J mice; [6]): 3.35 ± 0.73 g | Mice weight (C57BL/6J mice; [6]): 20.0 ± 0.69 g | 24 hours food intake (C57BL/6J mice; [7]): 3.55 ± 0.63 g | Mice weight (C57BL/6J mice; [7]): 20.1 ± 0.64 g | change of mice weight (C57BL/6J mice; [8]): −10% | reduction of food intake (C57BL/6J mice; [8]): about 30% | change of food consumption with respect to the control group (C57BL/6J mice; [9]): −25% | change of mice weight with respect to the control group (C57BL/6J mice; [9]): −7% | ED50 ([2]; rats fasted 16 hours): 3.7 mg/kg | effect on ketone bodies levels, dose relation ([2]; fasted rats, FIG. 2): dose-related effect | onset of action on ketone bodies levels ([2]; rats fasted 16 hours, single oral treatment 1-10 mg/kg, FIG. 2): faster onset of action | reduction of β-hydroxybutyrate levels [2]: higher and faster with respect to ST1326 | time to reach minimum β-hydroxybutyrate values [2]: 3 h | reduction of glucose levels (db/db mice; 30 mg/kg/day for 12 days): 41%

IC50 [3]: 57.3 µM | IC50 [1]: 0.12 µM | Ratio [1]: 478
Structure (SMILES): CCCCCCOc1cccc(OCCCCNC(=O)N[C@H](CC(=O)[O-])C[P+](C)(C)C)c1 [ST2452, (R)-4-trimethylphosphonium-3-[[4-[(3-hexyloxy)phenoxy]butyl]carbamoyl]-amino-butyrate]
reduction of β-hydroxybutyrate levels [2]: higher and faster with respect to ST1326 | time to reach minimum β-hydroxybutyrate values [2]: 3 h | reduction of glucose levels (db/db mice; 30 mg/kg/day for 12 days): 30%
